Assay results published in PMC10574185, “Encapsulation and Biological Activity of Hesperetin Derivatives with HP-β-CD” (Molecules, 2023).
≈ marks a conversion by molar mass, not a printed value. Where two headings read alike, the source gives them in different places.

Tests used:
[1] = FRAP assay (ferric-ion reducing antioxidant power); conditions: mean ± SD
Method: To evaluate the antioxidant ability of the tested systems, antioxidant analysis was performed. Antioxidants can scavenge hydroxyl radicals in two ways: by reacting directly with hydroxyl radicals (DPPH^•, ABTS^•+) or indirectly inhibiting the formation of hydroxyl radicals by chelating metal ions involved in the production of hydroxyl radicals. The antioxidant activity of the systems studied was investigated by using DPPH^• scavenging, ABTS^•+ scavenging ability, and Fe^2+-chelating ability. In this study, the antioxidant activity of pure hesperetin and its Schiff bases (HHSB, HIN, and HTSC) and HP-β-CD complexes were compared, and the positive control was Trolox.
The antioxidant capacity determined by the FRAP assay (the ability of plasma to reduce iron) was carried out using a modification of the FRAP assay. The FRAP reagent consisted of the following solutions: 300 mM acetate, pH 3.6 glacial acetic acid buffer, 20 mM ferric chloride (FeCl3×6H2O), and 10 mM 2,4,6-tripyridyl-S-triazine (TPTZ) prepared in 40 mM HCl. The aforementioned solutions were mixed together in a ratio of 10:1:1 (v/v/v). The FRAP assay consisted of adding 15 µL of sample to 1.98 mL of reagent and incubating the mixture at 37 °C for 4 min. Absorbance measurement was recorded at 593 nm against a blank. Total antioxidant capacity was estimated relative to a standard of known FRAP concentration, ferrous sulfate.

[2] = Phase solubility studies with HP-β-CD; format: physicochemical; conditions: for solubility at 60 min: thermodynamic from solid
Method: The purpose of this part of the study was to determine the solubility of compounds of hesperetin and its Schiff bases (HHSB, HIN, and HTSC) in aqueous solution at different pHs and temperatures, and the effect of their inclusion in modified HP-β-CD on the aqueous solubility of these compounds at different pH values.
The effect of the presence of HP-β-CD at different temperatures (25, 37, and 60 °C) was determined by developing phase solubility diagrams.
In accordance with the methodology described in Section 3.4, excess amounts of each tested substance were added to aqueous solution with increasing concentration of HP-β-CD up to 16 mM, respectively, in 2 mL of 100 mM sodium acetate buffer (pH 3.6), 100 mM sodium phosphate buffer (pH 6.5) or 100 mM sodium borate buffer (pH 8.5).
Phase solubility studies were conducted according to [64] with some modifications. Excess amounts of each tested substance were added to aqueous solution with increasing concentration of HP-β-CD up to 16 mM, in 2 mL of 100 mM sodium acetate buffer (pH 3.6), 100 mM sodium phosphate buffer (pH 6.5), or 100 mM sodium borate buffer (pH 8.5), respectively. The samples were maintained in an ultrasonic bath at various temperatures (25, 37, and 60 °C) for 60 min to reach equilibrium. The aqueous solutions were then filtered through 0.45 µm acetate cellulose (CA) membrane filter and diluted. The tested compound concentration on each clear filtrate was spectrophotometrically determined by measuring at their wavelength maximum.
The complexation constant (Kc) between studied molecules and HP-β-CD was determined by using Equation (1):(1) Kc=slope/S0 (1−slope) where S0 means the water solubility of the studied substance, and “slope” means the slope of the phase solubility diagram.
Complexation efficiency was calculated from the slope of the phase solubility diagram using Equation (2):(2) CE=S0×Kc=slope/1−slope
The CE was also applied to evaluate the molar ratio in solution of tested systems using Equation (3):(3) Compound:HP−β−CD=1:(1+1/CE)

[3] = test system: Staphylococcus aureus ATCC 27734; test: Antagonistic activity, diffusion-well method; format: cell-based; conditions: ATCC27734, compounds at 2.5 µM, wells 8 mm, 37 °C, 18 h
Method: The antimicrobial activity of the HESP, ligands ([…], and HTSC), and complexes with HP-β-CD were tested against Gram-positive bacteria (Listeria monocytogenes ATCC 19111, Listeria monocytogenes ATCC 19112, Listeria monocytogenes ATCC 19115, Staphylococcus aureus ATCC 29737, Staphylococcus aureus ATCC 25923, Staphylococcus aureus ATCC 27734) and Gram-negative bacteria (Escherichia coli ATCC 11303, Escherichia coli ATCC 35218, Salmonella Typhimurium, ATCC 14028, Salmonella Enteritidis ATCC 13076, Salmonella Choleraesuis ATCC 7001). The strains were activated from cryobanks by passaging them twice onto a Nutrient Broth (Merck, Darmstadt, Germany). All bacteria were grown for 24 h at 37 °C. Antagonistic activity of the following chemical compounds: […], and […] determined by the diffusion-well method. The test strains were plated on Mueller-Hinton Agar (Merck, Darmstadt, Germany) in the form of a surface layer of bacteria according to the procedures recommended by the European Committee on Antimicrobial Susceptibility Testing EUCAST [74]. The detailed methodology was described in the paper by Sykuła et al.. Bacterial inoculum was prepared from an overnight solid culture. The inoculum density was 1-2 × 10^8 CFU/mL, which corresponds to a McFarland standard of 0.5. The samples of the test compounds were dissolved in 5% (w/w) DMSO to obtain a concentration of 500 μM, and were sterilized using filtration (filter pore width 0.2 μm; (Sartorius AG, Gottingen, Germany). The bacteria inoculum test culture (0.1 mL) smear conducted was on sterile Mueller-Hinton Agar (Merck, Darmstadt, Germany) plates. […] A total of 50 μL of the prepared solutions of the tested compounds at a concentration of 500 μM were added to the wells. The plates prepared in this way were incubated at 37 °C for 18 h. After this time, zones of growth inhibition were read and the result was given in mm. The experiment was carried out in two independent repetitions. The results were expressed in average values and standard deviation. The results were analyzed using a one-way ANOVA and post-hoc Tukey's test.

[4] = 25 °C, pH 6.5, HP-β-CD at 16 mM
[5] = aqueous buffer, 25 °C, pH 3.6 sodium acetate buffer, without cyclodextrin, read-out: solubility without HP-β-CD (value in brackets) (converted)
[6] = aqueous buffer, 25 °C, pH 6.5 sodium phosphate buffer, without cyclodextrin, read-out: solubility without HP-β-CD (value in brackets) (converted)
[7] = aqueous buffer, 25 °C, pH 8.5 sodium borate buffer, without cyclodextrin, read-out: solubility without HP-β-CD (value in brackets) (converted)
[8] = aqueous buffer, 37 °C, pH 3.6 sodium acetate buffer, without cyclodextrin, read-out: solubility without HP-β-CD (value in brackets) (converted)
[9] = aqueous buffer, 37 °C, pH 6.5 sodium phosphate buffer, without cyclodextrin, read-out: solubility without HP-β-CD (value in brackets) (converted)
[10] = aqueous buffer, 37 °C, pH 8.5 sodium borate buffer, without cyclodextrin, read-out: solubility without HP-β-CD (value in brackets) (converted)
[11] = aqueous buffer, 60 °C, pH 3.6 sodium acetate buffer, without cyclodextrin, read-out: solubility without HP-β-CD (value in brackets) (converted)
[12] = aqueous buffer, 60 °C, pH 6.5 sodium phosphate buffer, without cyclodextrin, read-out: solubility without HP-β-CD (value in brackets) (converted)
[13] = aqueous buffer, 60 °C, pH 8.5 sodium borate buffer, without cyclodextrin, read-out: solubility without HP-β-CD (value in brackets) (converted)
[14] = 25 °C, pH 3.6 sodium acetate buffer, with HP-β-CD, read-out: S0 (solubility with HP-β-CD)
[15] = 25 °C, pH 6.5 sodium phosphate buffer, with HP-β-CD, read-out: S0 (solubility with HP-β-CD)
[16] = 25 °C, pH 8.5 sodium borate buffer, with HP-β-CD, read-out: S0 (solubility with HP-β-CD)
[17] = 37 °C, pH 3.6 sodium acetate buffer, with HP-β-CD, read-out: S0 (solubility with HP-β-CD)
[18] = 37 °C, pH 6.5 sodium phosphate buffer, with HP-β-CD, read-out: S0 (solubility with HP-β-CD)
[19] = 37 °C, pH 8.5 sodium borate buffer, with HP-β-CD, read-out: S0 (solubility with HP-β-CD)
[20] = 60 °C, pH 3.6 sodium acetate buffer, with HP-β-CD, read-out: S0 (solubility with HP-β-CD)
[21] = 60 °C, pH 6.5 sodium phosphate buffer, with HP-β-CD, read-out: S0 (solubility with HP-β-CD)
[22] = 60 °C, pH 8.5 sodium borate buffer, with HP-β-CD, read-out: S0 (solubility with HP-β-CD)

| CE complexation efficiency ([2]; 25 °C, pH 3.6, with HP-β-CD) [%] | Kc complexation constant ([2]; 25 °C, pH 3.6, with HP-β-CD) [M⁻¹] | increase of solubility with HP-β-CD [2, 4] | CE complexation efficiency ([2]; 25 °C, pH 6.5, with HP-β-CD) [%] | Kc complexation constant ([2]; 25 °C, pH 6.5, with HP-β-CD) [M⁻¹] | CE complexation efficiency ([2]; 25 °C, pH 8.5, with HP-β-CD) [%] | Kc complexation constant ([2]; 25 °C, pH 8.5, with HP-β-CD) [M⁻¹] | CE complexation efficiency ([2]; 37 °C, pH 3.6, with HP-β-CD) [%] | Kc complexation constant ([2]; 37 °C, pH 3.6, with HP-β-CD) [M⁻¹] | CE complexation efficiency ([2]; 37 °C, pH 6.5, with HP-β-CD) [%] | Kc complexation constant ([2]; 37 °C, pH 6.5, with HP-β-CD) [M⁻¹] | CE complexation efficiency ([2]; 37 °C, pH 8.5, with HP-β-CD) [%] | Kc complexation constant ([2]; 37 °C, pH 8.5, with HP-β-CD) [M⁻¹] | CE complexation efficiency ([2]; 60 °C, pH 3.6, with HP-β-CD) [%] | Kc complexation constant ([2]; 60 °C, pH 3.6, with HP-β-CD) [M⁻¹] | CE complexation efficiency ([2]; 60 °C, pH 6.5, with HP-β-CD) [%] | Kc complexation constant ([2]; 60 °C, pH 6.5, with HP-β-CD) [M⁻¹] | CE complexation efficiency ([2]; 60 °C, pH 8.5, with HP-β-CD) [%] | Kc complexation constant ([2]; 60 °C, pH 8.5, with HP-β-CD) [M⁻¹] | SMILES | FRAP antioxidant activity [1] | also measured |
| --- | --- | --- | --- | --- | --- | --- | --- | --- | --- | --- | --- | --- | --- | --- | --- | --- | --- | --- | --- | --- | --- |
| 34.7 | 3221 ± 358 | five-fold | 248 | 11933 ± 1949 | 80.4 | 2513 ± 143 | 44.4 | 3171 ± 887 | 25 | 2280 ± 152 | 19 | 1703 ± 163 | 34 | 2566 ± 144 | 11 | 1179 ± 888 | 37 | 2365 ± 221 | COc1ccc(C2CC(=O)c3c(O)cc(O)cc3O2)cc1O (stereo not shown) [Hesperetin, 3′,5,7-Trihydroxy-4′-methoxyflavanone] | 0.0005 ± 0.0005 mmolFe(II)/L | solubility at 60 min [2, 5]: 50 µM (≈ 15.1 µg/mL); solubility at 60 min [2, 6]: 49 µM (≈ 14.8 µg/mL); solubility at 60 min [2, 7]: 280 µM (≈ 84.6 µg/mL); solubility at 60 min [2, 8]: 80 µM (≈ 24.2 µg/mL); solubility at 60 min [2, 9]: 85 µM (≈ 25.7 µg/mL); solubility at 60 min [2, 10]: 98 µM (≈ 29.6 µg/mL); solubility at 60 min [2, 11]: 95 µM (≈ 28.7 µg/mL); solubility at 60 min [2, 12]: 82 µM (≈ 24.8 µg/mL); solubility at 60 min [2, 13]: 120 µM (≈ 36.3 µg/mL); solubility at 60 min [2, 14]: 108 ± 4 µM (≈ 32.6 µg/mL); solubility at 60 min [2, 15]: 208 ± 110 µM (≈ 62.9 µg/mL); solubility at 60 min [2, 16]: 320 ± 32 µM (≈ 96.7 µg/mL); solubility at 60 min [2, 17]: 140 ± 40 µM (≈ 42.3 µg/mL); solubility at 60 min [2, 18]: 110 ± 30 µM (≈ 33.3 µg/mL); solubility at 60 min [2, 19]: 110 ± 10 µM (≈ 33.3 µg/mL); solubility at 60 min [2, 20]: 130 ± 20 µM (≈ 39.3 µg/mL); solubility at 60 min [2, 21]: 96 ± 9 µM (≈ 29 µg/mL); solubility at 60 min [2, 22]: 150 ± 27 µM (≈ 45.3 µg/mL); zone of inhibition at 2.5 µM [3]: 0 mm |
| 0.07 | 13 ± 2.9 | five-fold | 0.07 | 11 ± 1.6 | 0.1 | 12.5 ± 0.3 | 0.1 | 16 ± 1.7 | 0.1 | 16 ± 1.7 | 0.3 | 18 ± 4.2 | 0.5 | 28 ± 0.3 | 0.04 | 2.2 ± 0.6 | 0.1 | 3.2 ± 0.6 | COc1ccc(C2CC(=NNC(N)=S)c3c(O)cc(O)cc3O2)cc1O (stereo not shown) [HTSC, N-[2,3-dihydro-5,7-dihydroxy-2-(3-hydroxy-4-methoxyphenyl)chromen-4-ylidene]thiosemicarbazide] | 0.000005 ± 0.00005 mmolFe(II)/L | increase of solubility with HP-β-CD ([2]; 60 °C, pH 3.6): five-fold; solubility at 60 min [2, 5]: 17 µM (≈ 6.38 µg/mL); solubility at 60 min [2, 6]: 11 µM (≈ 4.13 µg/mL); solubility at 60 min [2, 7]: 20 µM (≈ 7.51 µg/mL); solubility at 60 min [2, 8]: 28 µM (≈ 10.5 µg/mL); solubility at 60 min [2, 9]: 27 µM (≈ 10.1 µg/mL); solubility at 60 min [2, 10]: 220 µM (≈ 82.6 µg/mL); solubility at 60 min [2, 11]: 37 µM (≈ 13.9 µg/mL); solubility at 60 min [2, 12]: 160 µM (≈ 60.1 µg/mL); solubility at 60 min [2, 13]: 250 µM (≈ 93.9 µg/mL); solubility at 60 min [2, 14]: 54 ± 30 µM (≈ 20.3 µg/mL); solubility at 60 min [2, 15]: 61 ± 20 µM (≈ 22.9 µg/mL); solubility at 60 min [2, 16]: 70 ± 30 µM (≈ 26.3 µg/mL); solubility at 60 min [2, 17]: 76 ± 35 µM (≈ 28.5 µg/mL); solubility at 60 min [2, 18]: 68 ± 33 µM (≈ 25.5 µg/mL); solubility at 60 min [2, 19]: 160 ± 54 µM (≈ 60.1 µg/mL); solubility at 60 min [2, 20]: 170 ± 65 µM (≈ 63.8 µg/mL); solubility at 60 min [2, 21]: 180 ± 60 µM (≈ 67.6 µg/mL); solubility at 60 min [2, 22]: 270 ± 89 µM (≈ 101 µg/mL); zone of inhibition at 2.5 µM [3]: 0 mm |
